Measured values published in PubChem BioAssay AID1845210 (Molecular Pharmacology Branch, DTP, NCI, 2023).

Test system: NCI-H226 complex tumor spheroids, viability
Experiment: Anticancer human tumor NCI-H226 cell line growth inhibition;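 also: spheroids exposed to compound for 7 days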;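 as to viability, T/C: 100% = DMSO vehicle control viability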
Settings: for IC50: curve of first compound; for viability, T/C: stronger effect = lower value
Summary of the method: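 Complex spheroids of malignant cells with endothelial cells and mesenchymal stem cells; agents alone or combined, from near clinical Cmax (or 10 microM if unknown) down in half-log steps, 0.25% DMSO final.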

[1] = second compound 0.003 µM, first compound 0.0316 µM
[2] = second compound 0.003 µM, first compound 0.1 µM
[3] = second compound 0.003 µM, first compound 0.316 µM
[4] = second compound 0.003 µM, first compound 1 µM
[5] = second compound 0.003 µM, first compound 3.16 µM
[6] = second compound 0.003 µM, first compound 10 µM
[7] = second compound 0.00949 µM, first compound 0.0316 µM
[8] = second compound 0.00949 µM, first compound 0.1 µM
[9] = second compound 0.00949 µM, first compound 0.316 µM
[10] = second compound 0.00949 µM, first compound 1 µM
[11] = second compound 0.00949 µM, first compound 3.16 µM
[12] = second compound 0.00949 µM, first compound 10 µM
[13] = second compound 0.03 µM, first compound 0.0316 µM
[14] = second compound 0.03 µM, first compound 0.1 µM
[15] = second compound 0.03 µM, first compound 0.316 µM
[16] = second compound 0.03 µM, first compound 1 µM
[17] = second compound 0.03 µM, first compound 3.16 µM
[18] = second compound 0.03 µM, first compound 10 µM
[19] = second compound 0.0949 µM, first compound 0.0316 µM
[20] = second compound 0.0949 µM, first compound 0.1 µM
[21] = second compound 0.0949 µM, first compound 0.316 µM
[22] = second compound 0.0949 µM, first compound 1 µM
[23] = second compound 0.0949 µM, first compound 3.16 µM
[24] = second compound 0.0949 µM, first compound 10 µM
[25] = second compound 0.3 µM, first compound 0.0316 µM
[26] = second compound 0.3 µM, first compound 0.1 µM
[27] = second compound 0.3 µM, first compound 0.316 µM
[28] = second compound 0.3 µM, first compound 1 µM
[29] = second compound 0.3 µM, first compound 3.16 µM
[30] = second compound 0.3 µM, first compound 10 µM

Compound: Cn1ncnc1[C@H]1c2n[nH]c(=O)c3cc(F)cc(c23)N[C@@H]1c1ccc(F)cc1 + Cn1nnc2c(C(N)=O)ncn2c1=O
- IC50 (second compound 1 µM): > 3 µM
- IC50 (second compound 3.16 µM): > 3 µM
- IC50 (second compound 10 µM): > 3 µM
- IC50 (second compound 31.6 µM): > 3 µM
- IC50 (second compound 100 µM): > 3 µM
- viability, T/C (second compound 1 µM, first compound 0.00949 µM): 101%
- viability, T/C (second compound 1 µM, first compound 0.03 µM): 103%
- viability, T/C (second compound 1 µM, first compound 0.0949 µM): 99.4%
- viability, T/C (second compound 1 µM, first compound 0.3 µM): 91.2%
- viability, T/C (second compound 1 µM, first compound 0.949 µM): 85.8%
- viability, T/C (second compound 1 µM, first compound 3 µM): 97.8%
- viability, T/C (second compound 3.16 µM, first compound 0.00949 µM): 105%
- viability, T/C (second compound 3.16 µM, first compound 0.03 µM): 55.1%
- viability, T/C (second compound 3.16 µM, first compound 0.0949 µM): 94.8%
- viability, T/C (second compound 3.16 µM, first compound 0.3 µM): 85.6%
- viability, T/C (second compound 3.16 µM, first compound 0.949 µM): 93.1%
- viability, T/C (second compound 3.16 µM, first compound 3 µM): 105%
- viability, T/C (second compound 10 µM, first compound 0.00949 µM): 108%
- viability, T/C (second compound 10 µM, first compound 0.03 µM): 89.9%
- viability, T/C (second compound 10 µM, first compound 0.0949 µM): 86.8%
- viability, T/C (second compound 10 µM, first compound 0.3 µM): 88.6%
- viability, T/C (second compound 10 µM, first compound 0.949 µM): 89.5%
- viability, T/C (second compound 10 µM, first compound 3 µM): 97.5%
- viability, T/C (second compound 31.6 µM, first compound 0.00949 µM): 101%
- viability, T/C (second compound 31.6 µM, first compound 0.03 µM): 95.2%
- viability, T/C (second compound 31.6 µM, first compound 0.0949 µM): 96.4%
- viability, T/C (second compound 31.6 µM, first compound 0.3 µM): 91.8%
- viability, T/C (second compound 31.6 µM, first compound 0.949 µM): 82.3%
- viability, T/C (second compound 31.6 µM, first compound 3 µM): 90.7%
- viability, T/C (second compound 100 µM, first compound 0.00949 µM): 106%
- viability, T/C (second compound 100 µM, first compound 0.03 µM): 108%
- viability, T/C (second compound 100 µM, first compound 0.0949 µM): 95.8%
- viability, T/C (second compound 100 µM, first compound 0.3 µM): 87.1%
- viability, T/C (second compound 100 µM, first compound 0.949 µM): 100%
- viability, T/C (second compound 100 µM, first compound 3 µM): 93.5%

Compound: [2H]c1nc(C)nc([2H])c1-c1cc(NC[C@@H](C)c2cccc3c(C(=O)NC)ccnc23)ncn1 + CC[C@@]1(O)C(=O)OCc2c1cc1n(c2=O)Cc2cc3c(CN(C)C)c(O)ccc3nc2-1
- IC50 (second compound 0.003 µM): > 10 µM
- IC50 (second compound 0.00949 µM): > 10 µM
- IC50 (second compound 0.03 µM): > 10 µM
- IC50 (second compound 0.0949 µM): > 10 µM
- IC50 (second compound 0.3 µM): > 10 µM
- viability, T/C [1]: 89.6%
- viability, T/C [2]: 93.2%
- viability, T/C [3]: 92.6%
- viability, T/C [4]: 82%
- viability, T/C [5]: 79.5%
- viability, T/C [6]: 88.1%
- viability, T/C [7]: 86.8%
- viability, T/C [8]: 88.3%
- viability, T/C [9]: 93%
- viability, T/C [10]: 86.7%
- viability, T/C [11]: 84.3%
- viability, T/C [12]: 88.5%
- viability, T/C [13]: 79%
- viability, T/C [14]: 82%
- viability, T/C [15]: 84.3%
- viability, T/C [16]: 79%
- viability, T/C [17]: 81.5%
- viability, T/C [18]: 73%
- viability, T/C [19]: 88.8%
- viability, T/C [20]: 89%
- viability, T/C [21]: 85.1%
- viability, T/C [22]: 83%
- viability, T/C [23]: 80.5%
- viability, T/C [24]: 86.5%
- viability, T/C [25]: 59.8%
- viability, T/C [26]: 70.4%
- viability, T/C [27]: 65.5%
- viability, T/C [28]: 71.9%
- viability, T/C [29]: 59.5%
- viability, T/C [30]: 60.7%

Compound: Cc1cc(C)c(CNC(=O)c2cc(-c3ccc(CN4CCOCC4)cc3)cc3c2cnn3C2CCCC2)c(=O)[nH]1 + CC[C@@]1(O)C(=O)OCc2c1cc1n(c2=O)Cc2cc3c(CN(C)C)c(O)ccc3nc2-1
- IC50 (second compound 0.003 µM): > 10 µM
- IC50 (second compound 0.00949 µM): > 10 µM
- IC50 (second compound 0.03 µM): > 10 µM
- IC50 (second compound 0.0949 µM): > 10 µM
- IC50 (second compound 0.3 µM): > 10 µM
- viability, T/C [1]: 101%
- viability, T/C [2]: 96.8%
- viability, T/C [3]: 98.3%
- viability, T/C [4]: 85.3%
- viability, T/C [5]: 95.7%
- viability, T/C [6]: 108%
- viability, T/C [7]: 87.2%
- viability, T/C [8]: 88.8%
- viability, T/C [9]: 92.4%
- viability, T/C [10]: 82.9%
- viability, T/C [11]: 78.6%
- viability, T/C [12]: 96.3%
- viability, T/C [13]: 91.8%
- viability, T/C [14]: 78.3%
- viability, T/C [15]: 87.6%
- viability, T/C [16]: 88.9%
- viability, T/C [17]: 79.7%
- viability, T/C [18]: 95.3%
- viability, T/C [19]: 70.7%
- viability, T/C [20]: 72.9%
- viability, T/C [21]: 71%
- viability, T/C [22]: 77.5%
- viability, T/C [23]: 76.1%
- viability, T/C [24]: 106%
- viability, T/C [25]: 64%
- viability, T/C [26]: 62.4%
- viability, T/C [27]: 67%
- viability, T/C [28]: 68.5%
- viability, T/C [29]: 79.8%
- viability, T/C [30]: 95.2%
